Experimental data as given in US4646832A, “Determining residual oil saturation by injecting salts of carbonic and halocarboxylic acids” (Shell Oil Company, priority 1985, dated 1987).
Where two headings read alike, the source gives them in different places.

What was measured:
[1] = 50 psig, 0.05 mol/liter acid salt, 0.5 mol/liter NaCl
Excerpt: In each case, the solution was maintained at a pressure of 50 psig during each test. The pH of the solution was maintained substantially constant by adding portions of 0.1 mol/liter sodium bicarbonate solution to the system while the hydrolysis was proceeding. Each acid generator solution consisted of water containing 0.5 mol/liter sodium chloride and 0.05 mols/liter of the indicated halocarboxylic acid salt.
*^1 This is the time, in hours, required for the acid generator to be
onehalf reacted to form CO2 or acid.

[2] = Best estimate of applicable temperature range of CO2 generators (Table I); assay type: physicochemical; settings: best estimate of the applicable temperature range as CO2 generator

In the case of `CC(Cl)C(=O)O` (stereo not drawn) [2-Chloropropionic acid], the “Half Life, t1/2” value ([1]; Test 25, 130 °F, pH 6.2) is reported as 73.1 h and the “Half Life, t1/2” value ([1]; Test 26, 114 °F, pH 6.2) is reported as 598.5 h.
With `CC(Cl)CC(=O)O` (stereo not drawn) [3-Chlorobutyric acid] the “Half Life, t1/2” value ([1]; Test 22, 125 °F, pH 6.2) was 13.2 h, the “Half Life, t1/2” value ([1]; Test 23, 99 °F, pH 6.2) was 29.2 h and the “Half Life, t1/2” value ([1]; Test 24, 102 °F, pH 6.2) was 80.0 h.
In the case of `O=C(O)CCCl` [3-Chloropropionic acid], the “Half Life, t1/2” value ([1]; Test 1, 138 °F, pH 8.0) is reported as 43.5 h, the “Half Life, t1/2” value ([1]; Test 2, 140 °F, pH 7.0) is reported as 16.1 h and the “Half Life, t1/2” value ([1]; Test 3, 133 °F, pH 6.2) is reported as 27.9 h. The “Half Life, t1/2” value ([1]; Test 4, 133 °F, pH 5.5) was 30.4 h, the “Half Life, t1/2” value ([1]; Test 5, 113 °F, pH 5.5) was 114.0 h and the “Half Life, t1/2” value ([1]; Test 6, 117 °F, pH 6.2) was 95.8 h. The “Half Life, t1/2” value ([1]; Test 7, 114 °F, pH 7.0) was 130.1 h.
For `O=C(O)CBr` [Bromoacetic acid], the “Half Life, t1/2” value ([1]; Test 16, 167 °F, pH 5.5) was 17.3 h, the “Half Life, t1/2” value ([1]; Test 17, 166 °F, pH 7.0) was 12.5 h and the “Half Life, t1/2” value ([1]; Test 18, 143 °F, pH 7.0) was 171.4 h. For the same compound, the “Half Life, t1/2” value ([1]; Test 19, 156 °F, pH 6.2) was 32.6 h, the “Half Life, t1/2” value ([1]; Test 20, 140 °F, pH 6.2) was 136.9 h and the “Half Life, t1/2” value ([1]; Test 21, 124 °F, pH 6.2) was 319.2 h.
In the case of `O=C(O)C(Cl)Cl` [Dichloroacetic acid], the “Half Life, t1/2” value ([1]; Test 10, 197 °F, pH 7.0) is reported as 111.8 h and the “Half Life, t1/2” value ([1]; Test 11, 221 °F, pH 7.0) is reported as 23.0 h.
For `O=C(O)CCl` [Monochloroacetic acid], the “Half Life, t1/2” value ([1]; Test 8, 182 °F, pH 7.0) was 127.9 h and the “Half Life, t1/2” value ([1]; Test 9, 198 °F, pH 7.0) was 49.4 h.
With `O=C(O)c1ccccc1Cl` [O--Chlorobenzoic acid] the “Temperature Range” value [2] was over 300 °F, the “Half Life, t1/2” value ([1]; Test 12, 212 °F, pH 7.0) was 3,113 hours and the “Half Life, t1/2” value ([1]; Test 13, 212 °F, pH 6.2) was 2,543 hours. The “Half Life, t1/2” value ([1]; Test 14, 204 °F, pH 8.0) was 3,906 hours and the “Half Life, t1/2” value ([1]; Test 15, 251 °F, pH 8.0) was 2,335 hours.
